Measurements as given in patent publication US11285156B2, “Substituted piperazines as KRAS G12C inhibitors” (Amgen Inc., priority 2018, dated 2022).

Biological target: GDP-bound KRAS protein (aa 1-169), containing both G12C and C118A amino acid substitutions (Homo sapiens (Human), UniProt P01116, C118A/G12C)
Experiment: Coupled nucleotide exchange assay (SOS-mediated nucleotide exchange, AlphaScreen)
Type: biochemical
Conditions: 5 min compound pre-incubation
Protocol: Coupled Nucleotide Exchange Assay:
Following compound pre-incubation, purified SOS protein (aa 564-1049) and GTP (Roche 10106399001) were added to the assay wells and incubated for an additional 30 min (for 5 min compound pre-incubation) or 1 hour (for 2 hour compound pre-incubation). […] The assay plates were then read on a PerkinElmer EnVision Multilabel Reader, using AlphaScreen® technology, and data were analyzed using a 4-parameter logistic model to calculate IC50 values.

Chain of GDP-bound KRAS protein (aa 1-169), containing both G12C and C118A amino acid substitutions (P01116 other isoform, or with tags, fused parts or gaps G12C/C118A): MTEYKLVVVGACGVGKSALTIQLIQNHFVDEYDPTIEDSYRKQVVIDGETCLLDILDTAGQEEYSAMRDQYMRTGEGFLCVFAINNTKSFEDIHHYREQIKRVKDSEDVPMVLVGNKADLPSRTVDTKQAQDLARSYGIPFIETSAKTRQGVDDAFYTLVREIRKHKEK

Coupled exchange IC50 (5 min; μM) [µM]	Compound
0.066	C=CC(=O)N1C[C@H](C)N(c2nc(=O)n(-c3c(C)cc(C4CC4)nc3C(C)C)c3nc(-c4ccccc4F)c(Cl)cc23)C[C@H]1C (single isomer, unassigned) [Example 164-1]
3.44	C=CC(=O)N1C[C@H](C)N(c2nc(=O)n(-c3c(C)cc(C4CC4)nc3C(C)C)c3nc(-c4ccccc4F)c(Cl)cc23)C[C@H]1C (single isomer, unassigned) [Example 164-2]
1.032	C=CC(=O)N1C[C@H](C)N(c2nc(=O)n(-c3c(C)cc(CC)nc3C(C)C)c3nc(-c4ccccc4F)c(Cl)cc23)C[C@H]1C (single isomer, unassigned) [Example 166-2]
0.14	C=CC(=O)N1C[C@H](C)N(c2nc(=O)n(-c3c(C(C)C)cc(N4CCC4)nc3C(C)C)c3nc(-c4ccccc4F)c(Cl)cc23)C[C@H]1C (single isomer, unassigned) [Example 182-1]
0.187	C=CC(=O)N1C[C@H](C)N(c2nc(=O)n(-c3c(C(C)C)cc(N4CCC4)nc3C(C)C)c3nc(-c4ccccc4F)c(Cl)cc23)C[C@H]1C (single isomer, unassigned) [Example 182-2]
2.99	C=CC(=O)N1C[C@H](C)N(c2nc(=O)n(-c3c(C)nc(Cl)nc3C(C)C)c3nc(-c4ccccc4F)c(Cl)cc23)C[C@H]1C (single isomer, unassigned) [Example 191-1]
1.59	C=CC(=O)N1C[C@H](C)N(c2nc(=O)n(-c3c(C)nc(Br)nc3C(C)C)c3nc(-c4ccccc4F)c(Cl)cc23)C[C@H]1C (single isomer, unassigned) [Example 197-1]
1.34	C=CC(=O)N1C[C@H](C)N(c2nc(=O)n(-c3c(C(C)C)cccc3[S+](C)[O-])c3nc(-c4ccccc4F)c(Cl)cc23)C[C@H]1C (single isomer, unassigned) [Example 209-2]
13.4	C=CC(=O)N1C[C@H](C)N(c2nc(=O)n(C3CCCCC3)c3nc(-c4ccccc4F)c(Cl)cc23)C[C@H]1C [110-2, 6-Chloro-1-cyclohexyl-4-[(2S,5R)-2,5-dimethyl-4-prop-2-enoyl-piperazin-1-yl]-7-(2-fluorophenyl)pyrido [2,3-d]pyrimidin-2-one]

Compound	Coupled exchange IC50 (5 min; μM) [µM]
C=CC(=O)N1CCN(c2nc(=O)n(-c3c(C)cc(N)nc3C(C)C)c3nc(-c4ccccc4F)c(Cl)cc23)[C@@H](C)C1 (single isomer, unassigned) [Example 183-1]	0.61
C=CC(=O)N1C[C@H](C)N(c2nc(=O)n(-c3c(N)ncnc3C(C)C)c3nc(-c4ccccc4F)c(Cl)cc23)C[C@H]1C (single isomer, unassigned) [Example 189-2]	14.7
C=CC(=O)N1C[C@H](C)N(c2nc(=O)n(-c3c(C)ncnc3C(C)C)c3nc(-c4ccccc4F)c(Cl)cc23)C[C@H]1C (single isomer, unassigned) [Example 194-2]	1.45
C=CC(=O)N1C[C@H](C)N(c2nc(=O)n(-c3c(C)cc([S+](C)[O-])cc3C(C)C)c3nc(-c4ccccc4C)c(Cl)cc23)C[C@H]1C (single isomer, unassigned) [Example 213-1]	1.5
C=CC(=O)N1C[C@H](C)N(c2nc(=O)n(-c3c(C)cc([S+](C)[O-])cc3C(C)C)c3nc(-c4ccccc4C)c(Cl)cc23)C[C@H]1C (single isomer, unassigned) [Example 213-4]	1.51
C=CC(=O)N1C[C@H](C)N(c2nc(=O)n(-c3c(C)cc(S(C)(=O)=O)cc3C(C)C)c3nc(-c4ccccc4F)c(Cl)cc23)C[C@H]1C (single isomer, unassigned) [Example 215-1]	3.79

Same assay, conditions: read-out: Coupled exchange IC50 (5 min; μM); 5 min compound pre-incubation

Compound	IC50 [µM]
C=CC(=O)N1CCN(c2nc(=O)n(-c3c(C)ccnc3C(C)C)c3nc(-c4c(O)cccc4F)c(F)cc23)C(C)C1C (single isomer, unassigned) [Example 124-14-1, 4-[cis-2,3-dimethyl-4-prop-2-enoyl-piperazin-1-yl]-6-fluoro-7-(2-fluoro-6-hydroxy-phenyl)-1-(2-isopropyl-4-methyl-3-pyridyl)pyrido[2,3-d]pyrimidin-2-one]	22.2
C=CC(=O)N1CCN(c2nc(=O)n(-c3c(C)ccnc3C(C)C)c3nc(-c4c(O)cccc4F)c(F)cc23)C(C)C1C (single isomer, unassigned) [Example 124-14-2, 4-[cis-2,3-dimethyl-4-prop-2-enoyl-piperazin-1-yl]-6-fluoro-7-(2-fluoro-6-hydroxy-phenyl)-1-(2-isopropyl-4-methyl-3-pyridyl)pyrido[2,3-d]pyrimidin-2-one]	59.5
C=CC(=O)N1CCN(c2nc(=O)n(-c3c(C)ccnc3C(C)C)c3nc(-c4c(O)cccc4F)c(F)cc23)C(C)C1C (single isomer, unassigned) [Example 124-16-1, 4-[trans-2,3-dimethyl-4-prop-2-enoyl-piperazin-1-yl]-6-fluoro-7-(2-fluoro-6-hydroxy-phenyl)-1-(2-isopropyl-4-methyl-3-pyridyl)pyrido[2,3-d]pyrimidin-2-one]	1.12
C=CC(=O)N1CCN(c2nc(=O)n(-c3c(C)ccnc3C(C)C)c3nc(-c4c(O)cccc4F)c(F)cc23)C(C)C1C (single isomer, unassigned) [Example 124-16-2, 4-[trans-2,3-dimethyl-4-prop-2-enoyl-piperazin-1-yl]-6-fluoro-7-(2-fluoro-6-hydroxy-phenyl)-1-(2-isopropyl-4-methyl-3-pyridyl)pyrido[2,3-d]pyrimidin-2-one]	7.37
C=CC(=O)N1C[C@H](C)N(c2nc(=O)n(-c3c(C(C)C)ccnc3C(C)C)c3nc(-c4ccccc4C)c(F)cc23)C[C@H]1C (single isomer, unassigned) [Example 125-5]	0.46
C=CC(=O)N1C[C@H](C)N(c2nc(=O)n3c4nc(c(Cl)cc24)-c2ccccc2C/C=C/Cc2cccc(C(C)C)c2-3)C[C@H]1C (single isomer, unassigned) [Example 146-1-1]	9.43
C=CC(=O)N1C[C@H](C)N(c2nc(=O)n3c4nc(c(Cl)cc24)-c2ccccc2C/C=C\Cc2cccc(C(C)C)c2-3)C[C@H]1C (single isomer, unassigned) [Example 146-1-2]	53.8
C=CC(=O)N1C[C@H](C)N(c2nc(=O)n3c4nc(c(Cl)cc24)-c2ccccc2C/C=C/Cc2ccccc2-3)C[C@H]1C (single isomer, unassigned) [Example 146-3-1]	204
C=CC(=O)N1C[C@H](C)N(c2nc(=O)n3c4nc(c(Cl)cc24)-c2ccccc2C/C=C\Cc2ccccc2-3)C[C@H]1C (single isomer, unassigned) [Example 146-3-3]	57.3
C=CC(=O)N1C[C@H](C)N(c2nc(=O)n(-c3c(C(C)C)cccc3S(C)(=O)=O)c3nc(-c4ccccc4F)c(Cl)cc23)C[C@H]1C (single isomer, unassigned) [Example 208-1]	2.56
C=CC(=O)N1[C@H](C)CN(c2nc(=O)n(-c3c(C)ccnc3C(C)C)c3nc(-c4ccccc4F)c(Cl)nc23)C[C@@H]1C (single isomer, unassigned) [Example 224-1]	23.3
C=CC(=O)N1[C@H](C)CN(c2nc(=O)n(-c3c(C)ccnc3C(C)C)c3nc(-c4ccccc4F)c(Cl)nc23)C[C@@H]1C (single isomer, unassigned) [Example 224-2]	1.29
C=CC(=O)N1C[C@H](C)N(c2nc(=O)n(-c3c(C)ccnc3C(C)C)c3nc(-c4ccccc4F)c(C)nc23)C[C@H]1C (single isomer, unassigned) [Example 225-1]	7.62
C=CC(=O)N1C[C@H](C)N(c2nc(=O)n(-c3c(C)ccnc3C(C)C)c3nc(-c4ccccc4F)c(C)nc23)C[C@H]1C (single isomer, unassigned) [Example 225-2]	0.501
C=CC(=O)N1C[C@H](C)N(c2nc(=O)n(-c3c(C)ccnc3C(C)C)c3nc(-c4ccccc4F)c(C)nc23)C[C@H]1C (single isomer, unassigned) [Example 225]	4.43
C=CC(=O)N1C[C@H](C)N(c2nc(=O)n(-c3c(C)ccnc3C(C)C)c3nc(-c4ncccc4OC)c(Cl)cc23)C[C@H]1C [96-2]	1.22
C=CC(=O)N1C[C@H](C)N(c2nc(=O)n(-c3c(N(C)C)ccnc3C(C)C)c3nc(-c4ccccc4S(C)(=O)=O)c(Cl)cc23)C[C@H]1C [Example 55-53, 6-Chloro-1-[4-(dimethylamino)-2-isopropyl-3-pyridyl]-4-[(2S,5R)-2,5-dimethyl-4-prop-2-enoyl-piperazin-1-yl]-7-(2-methylsulfonylphenyl)pyrido[2,3-d]pyrimidin-2-one]	0.356
C=CC(=O)N1C[C@H](C)N(c2nc(=O)n(-c3ccccc3P(C)(C)=O)c3nc(-c4ccccc4F)c(Cl)cc23)C[C@H]1C [Example 55-55, 6-Chloro-1-(2-dimethylphosphorylphenyl)-4-[(2S,5R)-2,5-dimethyl-4-prop-2-enoyl-piperazin-1-yl]-7-(2-fluorophenyl)pyrido[2,3-d]pyrimidin-2-one]	3.14
C=CC(=O)N1C[C@H](C)N(c2nc(=O)n(-c3c(C(C)C)ncnc3C(C)C)c3nc(-c4ccccc4C#N)c(Cl)cc23)C[C@H]1C [Example 100-3, 2-[6-Chloro-1-(4,6-diisopropylpyrimidin-5-yl)-4-[(2S,5R)-2,5-dimethyl-4-prop-2-enoyl-piperazin-1-yl]-2-oxo-pyrido[2,3-d]pyrimidin-7-yl]benzonitrile]	0.763
C=CC(=O)N1CCN(c2nc(=O)n(CC(C)(C)C)c3nc(Cl)c(Cl)cc23)CC1 [Example 100-5, 6,7-Dichloro-1-(2,2-dimethylpropyl)-4-(4-prop-2-enoylpiperazin-1-yl)pyrido[2,3-d]pyrimidin-2-one]	58.3
C=CC(=O)N1CCN(c2nc(=O)n(CC(C)(C)C)c3ncccc23)CC1 [Example 100-6, 1-(2,2-dimethylpropyl)-4-(4-prop-2-enoylpiperazin-1-yl)pyrido[2,3-d]pyrimidin-2-one]	250
